Measured values taken from patent US20070073039A1, “Peptides that inhibit viral infections” (priority 2005, published 2007).

Experiments:
HCV [1] = test: Intracellular HCV RNA by real time RT-QPCR after infection of Huh-7.5.1 cells with and without peptide; type: cell-based, Hepatitis C virus (JFH-1); settings: for HCV RNA fold inhibition 24 h 25 μM / HCV RNA fold inhibition 72 h 25 μM: Huh-7.5.1 cells, MOI 0.1, normalized to GAPDH
Description: To accurately quantify the inhibitory effect of the selected peptides on HCV infection, intracellular HCV RNA was measured after infection by real time RT-QPCR with and without peptide treatment. The peptide stock solution was diluted 1:100 and mixed with equal volume of viral supernatant (propagated from day 18 virus preparation post transfection) to a final concentration approximately 20 μM. The virus with peptide or 0.5% DMSO solvent control was then used to infect Huh-7.5.1 cells at a multiplicity of infection (MOI) of 0.1. After an adsorption for 4 hours at 37° C., the inoculum was removed. The cells were washed 2 times, overlaid with 120 μL fresh growth medium and incubated at 37° C. At the indicated time points, total cellular RNA was isolated by the guanidine thiocyanate method. The HCV RNA transcript level was measured by real time RT-QPCR with the primers 5′—
normalized to cellular GAPDH levels.
To define the antiviral action of peptide #1 (SEQ ID NO:43), the antiviral activity of a series of N-terminal and C-terminal truncations of peptide 1 was analyzed using the focus reduction assay and by measuring the reduction in intracellular HCV RNA as described.

HCV [2] = test: HCV focus reduction assay; type: cell-based, Hepatitis C virus (JFH-1); settings: for Inhibition of HCV infection: cell culture model of HCV infection; for Fold Inhibition: inhibition of HCV infection; for Fold Inhibition / % of Mock: peptide approximately 20 μM, Huh-7.5.1 cells, 3 days; for % of Mock: number of HCV foci as % of mock (0.5% DMSO); for Fold inhibition of HCV infection: peptide library screen, approximately 20 μM; for 1/3 diluted / 1/9 diluted / No dilution: HCV foci; for 1/3 diluted: 1/3 of final concentration (6 μM); for 1/9 diluted: 1/9 of final concentration (2 μM); for No dilution: final concentration 17-20 μM, MOCK 53 ± 4
Description: To identify peptides that display antiviral activity against HCV infection, the peptide library was screened by an HCV focus reduction assay. The peptides were constituted in 100% DMSO at a final concentration 10 mg/mL, and stored in −20° C. The peptide stock solution was diluted 1:200 to a final concentration approximately 20 μM in complete DMEM growth medium containing 50 focus forming units (ffu) of HCV. The virus-peptide mixture was transferred to Huh-7.5.1 cells at a density of 8000 cells per well in a 96-well plate. After adsorption for 4 hours at 37° C., the inoculum was removed. The cells were washed 2 times, overlaid with 120 μL fresh growth medium and incubated at 37° C. After 3 days of culture, the cells were fixed with paraformaldehyde and immunostained with antibody against HCV nonstructural protein NS5A. The numbers of HCV foci were counted under fluorescent microscopy and the result is expressed as percentage (%) of mock with no peptide treatment but containing solvent 0.5% DMSO.
To determine whether the antiviral activity of peptide 1 is dependent on its primary amino acid sequence, four derivative peptides from peptide 1 were synthesized to a purity >95%. The four derivatives having the same composition of amino acids included (1) the reversed the sequence of peptide 1 (also called retro-peptide); (2) scrambled hydrophobic amino acids; (3) scrambled hydrophilic amino acids; and (4) a derivative in which the aspartic acid residues (D) were replaced with proline residues (P). The antiviral activity of the peptides was examined by HCV focus reduction assay at three peptide concentrations: 18 μM, 6 μM and 2 μM, as described above.

| Sequence | Fold Inhibition (HCV [2]) [fold] | % of Mock (HCV [2]) [%] | further results |
| --- | --- | --- | --- |
| ALYVGDLCGSVFLVGQLF [Peptide 7] | 100.0 | 1.0 | HCV RNA fold inhibition 24 h 25 μM (HCV [1]; 24 h): 20 fold; HCV RNA fold inhibition 72 h 25 μM (HCV [1]; 72 h): 11 fold; Inhibition of HCV infection (HCV [2]): strongly inhibit HCV infection; Fold inhibition of HCV infection (HCV [2]): more than ten-fold |
| APTLWARMILMTHFFSVL [Peptide 7331] | 2.2 | 45.2 |  |
| ATQTFLATCINGVCWTVY [Peptide 12] | 42.0 | 2.4 | HCV RNA fold inhibition 24 h 25 μM (HCV [1]; 24 h): 8 fold; HCV RNA fold inhibition 72 h 25 μM (HCV [1]; 72 h): 5 fold; Inhibition of HCV infection (HCV [2]): strongly inhibit HCV infection; Fold inhibition of HCV infection (HCV [2]): more than ten-fold |
| AYMNTPGLPVCQDHLEFW [Peptide 7146] | 2.5 | 40.5 |  |
| CEVLSDFK [^N-8mer] |  |  | Fold Inhibition on HCV RNA (24 h) (HCV [1]; 24 h, working concentration 18.4-27.5 μM per peptide): 1.1 fold; Fold Inhibition on HCV RNA (72 h) (HCV [1]; 72 h, working concentration 18.4-27.5 μM per peptide): 0.7 fold; Focus Reduction (72 h) (HCV [2]; 72 h, working concentration 18.4-27.5 μM per peptide, Mock 51): 53 |
| DAILHTPGCVPCVREGNA [Peptide 6957] | 4.7 | 21.4 |  |
| DDLVVICESAGVQEDAAS [Peptide 7317] | 3.8 | 26.2 |  |
| DQLEQALNCEIYGACYSI [Peptide 7334] | 3.5 | 28.6 |  |
| DSSVLCECYDAGCAWYEL [Peptide 7142] | 2.5 | 40.5 |  |
| DTEDVVCCSMSYSW [Peptide 7741] | 42.0 | 2.4 | Inhibition of HCV infection (HCV [2]): strongly inhibit HCV infection; Fold inhibition of HCV infection (HCV [2]): more than ten-fold |
| DVVCCSMSYSWTGAL [Peptide 7742] | 4.2 | 23.8 |  |
| DWICEVLSDFKTWLKAKL [Peptide 13] | 42.0 | 2.4 | HCV RNA fold inhibition 24 h 25 μM (HCV [1]; 24 h): 7 fold; HCV RNA fold inhibition 72 h 25 μM (HCV [1]; 72 h): 2 fold; Inhibition of HCV infection (HCV [2]): strongly inhibit HCV infection; Fold inhibition of HCV infection (HCV [2]): more than ten-fold |
| EVFWAKHMWNFISGIQYL [Peptide 7177] | 4.2 | 23.8 |  |
| GAVYAFYGMWPLLLLLLA [Peptide 7038] | 5.3 | 19.0 | Fold inhibition of HCV infection (HCV [2]): five-fold to ten-fold |
| GMWPLLLLLLALPQRAYA [Peptide 7039] | 3.2 | 31.0 |  |
| GNTLTCYIKARAACRAAG [Peptide 7313] | 2.2 | 45.2 |  |
| GPISYANGSGLDERPYCW [Peptide 6993] | 4.2 | 23.8 |  |
| GSATLCSALYVGDLCGSV [Peptide 5] | 100.0 | 1.0 | HCV RNA fold inhibition 24 h 25 μM (HCV [1]; 24 h): 26 fold; HCV RNA fold inhibition 72 h 25 μM (HCV [1]; 72 h): 27 fold; Inhibition of HCV infection (HCV [2]): strongly inhibit HCV infection; Fold inhibition of HCV infection (HCV [2]): more than ten-fold |
| GSGLDERPYCWHYPPRPC [Peptide 6994] | 3.0 | 33.3 |  |
| GVPPLRAWRHRARSVRAR [Peptide 7342] | 2.0 | 50.0 |  |
| GWAGWLLSPRGSRPSWGP [Peptide 6939] | 2.2 | 45.2 |  |
| GWFTAGYSGGDIYHSVSH [Peptide 7350] | 2.3 | 42.9 |  |
| HINSTALNCNESLNTGWL [Peptide 6986] | 2.5 | 40.5 |  |
| HPITKYIMTCMSADLEVV [Peptide 7160] | 2.6 | 38.1 |  |
| HTPVNSWLGNIIMFAPTL [Peptide 7329] | 2.1 | 47.6 |  |
| KFDSLVECIWDWIDRLWS (OTHER INFORMATION: A synthetic peptide) |  |  | 1/3 diluted (HCV [2]): 50 ± 7; 1/9 diluted (HCV [2]): 31 ± 3; No dilution (HCV [2]): 1 ± 1 |
| KWEYVVLLFLLLADARVC [Peptide 7028] | 2.1 | 47.6 |  |

| Sequence | Fold Inhibition (HCV [2]) [fold] | % of Mock (HCV [2]) [%] | further results |
| --- | --- | --- | --- |
| KWLCRIWSWISDVLDDFE (OTHER INFORMATION: A synthetic peptide) |  |  | 1/3 diluted (HCV [2]): 8 ± 6; 1/9 diluted (HCV [2]): 15 ± 6; No dilution (HCV [2]): 0 ± 0 |
| LAALAAYCLSTGCVV [Peptide 7730] | 4.7 | 21.4 |  |
| LASCRRLTDFAQGWGPIS [Peptide 6991] | 2.8 | 35.7 |  |
| LEFWEGVFTGLTHIDAHF [Peptide 7148] | 3.0 | 33.3 |  |
| LELITSCSSNVSVAHDGA [Peptide 7323] | 2.3 | 42.9 |  |
| LPTTQLRRHIDLLVGSAT [Peptide 6962] | 2.6 | 38.1 |  |
| MWNFISGIQYLAGLSTLP [Peptide 7178] | 2.3 | 42.9 |  |
| MYVGGVEHRLEAACNWTR [Peptide 7016] | 6.0 | 16.7 | Fold inhibition of HCV infection (HCV [2]): five-fold to ten-fold |
| NCNESLNTGWLAGLFYQH [Peptide 6987] | 2.8 | 35.7 |  |
| PAILSPGALVVGVVCAAI [Peptide 7195] | 2.3 | 42.9 |  |
| PCVIGGVGNNTLLCPTDC [Peptide 7007] | 3.0 | 33.3 |  |
| QIVGGVYLLPRRGPRLGV [Peptide 6930] | 2.2 | 45.2 |  |
| QPGYPWPLYGNEGCGWAG [Peptide 6937] | 2.0 | 50.0 |  |
| RAAGLQDCTMLVCGDDLV [Peptide 7315] | 2.0 | 50.0 |  |
| RHIDLLVGSATLCSALYV [Peptide 6963] | 3.2 | 31.0 |  |
| SIASWAIKWEYVVLLFLL [Peptide 7027] | 2.5 | 40.5 |  |
| SIWRDWVDLICEFLSDWK (OTHER INFORMATION: A synthetic peptide) |  |  | 1/3 diluted (HCV [2]): 31 ± 2; 1/9 diluted (HCV [2]): 16 ± 4; No dilution (HCV [2]): 0 ± 0 |
| SSGADTEDVVCCSMS [Peptide 7740] | 2.3 | 42.9 |  |
| SWLRPIWPWICEVLSDFK (OTHER INFORMATION: A synthetic peptide) |  |  | 1/3 diluted (HCV [2]): 21 ± 8; 1/9 diluted (HCV [2]): 41 ± 2; No dilution (HCV [2]): 9 ± 3 |
| TDFAQGWGPISYANGSGL [Peptide 6992] | 3.2 | 31.0 |  |
| TSTWVLVGGVLAAL (VTSTWVLVGGVLAAL) [Peptide 7729] | 8.4 | 11.9 | Fold inhibition of HCV infection (HCV [2]): five-fold to ten-fold |
| TVTESDIRTEEAIYQCCD [Peptide 7304] | 2.8 | 35.7 |  |
| VSTATQTFLATCIN [Peptide 7725] | 2.5 | 40.5 |  |
| WMNSTGFTKVCGAPPCVI [Peptide 7005] | 6.0 | 16.7 | Fold inhibition of HCV infection (HCV [2]): five-fold to ten-fold |
| WRHRARSVRARLLSRGGR [Peptide 7343] | 2.1 | 47.6 |  |
| WVLVGGVLAALAAYCLST [Peptide 7163] | 3.8 | 26.2 |  |
| YVSGMTTDNLKCPCQIPS [Peptide 7226] | 2.6 | 38.1 |  |
